Results on 2 compounds are retold here after patent US20060148903A1, “Capsaicinoid gel formulation and uses thereof” (AlgoRx Pharmaceuticals, Inc., priority 2004, published 2006).

As a reminder, the solubility is the concentration that dissolves in the medium under given conditions.

Data set [1] is described as follows: physchem. As to conditions: 25 °C, thermodynamic from solid. The format is physicochemical. How it is done:
A known weight of capsaicin drug substance was weighed into a 4 ml Wheaton vial. A known volume of solvent was added and the sample placed in an ultrasonic bath for a minimum of 5 minutes. The temperature of the water bath was kept <25° C. at all times. Samples were transferred to a shaker bath at 25° C./60% RH and left for a minimum of 5 days. The samples were inspected and samples showing saturation (excess solid material remaining) removed for analysis. An additional known weight of capsaicin was added to the remaining samples and they were returned to the shaker bath. This was repeated until all samples had reached saturation.
Samples were filtered through a 0.45 μm PVDF Millipore Millex-HV hydrophilic disposable filter into a clean Wheaton vial. Sample absorbance was determined at 280 nm using 2 mm matched cuvettes. Samples were read against their equivalent solvent blank. Where necessary samples were diluted with methanol and these samples read against a methanol blank.
The concentration of each solution was determined by comparison with the absorbance of a capsaicin reference standard solution of known concentration.
Tween 80 results were very promising therefore the two materials were combined to investigate any possible synergistic effect on capsaicin solubility. […]

Data set [2] can be described thus: physchem. The format is physicochemical. As to conditions: for solubility at 7 days: 2 °C; for solubility at 7 days / solubility at 4 days: thermodynamic from solid; for solubility at 4 days: 25 °C; for Indicative solubility of capsaicin, Concentration mg/ml: 4 days. How it is done:
The solubility of capsaicin was determined for the following vehicles by adding an excess of capsaicin and determining the saturation solubility by UV analysis of the supernatant.
Aliquots of 5 ml of each vehicle were dispensed into vials in duplicate and excess capsaicin added equivalent to 5 mg/ml. A small magnetic stirrer bar was introduced into vials containing the gel vehicle and mixed for approximately 5 minutes to disperse the capsaicin. All vials were sonicated for a total of 20 minutes maintaining the temperature below 25° C. The vials were stirred for a further hour.
One vial from each formulation was placed at 25° C./60% RH and one vial from each formulation was placed on a shaker at 2-8° C.
Vials were removed from 25° C./60% RH after storage for 4 days. Vials stored at 2-8° C. were removed from the shaker after storage for 4 days and returned to 2-8° C. to equilibrate further before being removed after storage for a total of 7 days.
A reference solution containing capsaicin 0.06 mg/ml in methanol was prepared. Samples were centrifuged for 20 minutes at 15000 rpm. The resultant supernatant from each vial was carefully transferred to fresh vials. The supernatant from each sample was diluted 1 in 50 with methanol and analyzed by UV at 280 nm using matched quartz cuvettes versus a methanol blank.

For data set [3] the following is noted: fold more potent than capsaicin; cited from earlier work.
Where [4] appears, read: pH 5.5, aqueous with cosolvent or surfactant or cyclodextrin, Indicative solubility of capsaicin, Concentration mg/ml.
Where [5] appears, read: pH 7, aqueous with cosolvent or surfactant or cyclodextrin, Indicative solubility of capsaicin, Concentration mg/ml.

The structures appear in SMILES notation. Converted amounts (≈) assume the structure as drawn.

Take `COc1cc(CNC(=O)CCCC/C=C/C(C)C)ccc1O` [Capsaicin, N-(4-hydroxy-3-methoxybenzyl)-8-methylnon-trans-6-enamide]: the solubility is around 1000 µg/mL in the data set “physchem [1]” (aqueous with cosolvent or surfactant or cyclodextrin, increase of capsaicin solubility for each 1% increase in Tween 80) and 160000 µg/mL in the data set “physchem [1]” (organic solvent or mixture, Capsaicin Solubility (mg/ml)). Moreover, the solubility at 7 days amounted to 2200 µg/mL (≈ 7.2 mM) in the data set “physchem [2]” (setting [4]) and 2000 µg/mL (≈ 6.55 mM) in the data set “physchem [2]” (setting [5]). Moreover, the solubility at 4 days in “physchem [2]” (aqueous with cosolvent or surfactant or cyclodextrin, solubility of capsaicin gel formulations) is 2000 µg/mL (≈ 6.55 mM); in “physchem [2]” (setting [4]), 2200 µg/mL (≈ 7.2 mM); in the data set “physchem [2]” (setting [5]), 2100 µg/mL (≈ 6.88 mM); in “physchem [2]” (pH 7, aqueous with cosolvent or surfactant or cyclodextrin, capsaicin solubility in isotonic gel vehicles), around 2000 µg/mL (≈ 6.55 mM). The “Indicative solubility of capsaicin, Concentration mg/ml” value in “physchem [2]” (pH 5.5) amounted to 2.1 mg/mL; in “physchem [2]” (pH 7), 1.9 mg/mL. For the same compound, in the data set “physchem [2]” (gel formulations stored at 2-8° C.), the “capsaicin concentration in gel formulations” value amounted to 2 mg/mL.

Consider `C=C(C)[C@]12C[C@@H](C)[C@@]34O[C@](Cc5ccccc5)(O[C@@H]1[C@@H]3C=C(COC(=O)Cc1ccc(O)c(OC)c1)C[C@]1(O)C(=O)C(C)=C[C@@H]41)O2` [Resiniferatoxin], for which the “potency relative to capsaicin” value in data set [3] is reported as 103-104 fold.
